{"source": "patent US5891917A", "about": "“Certain acrylonitrile-sulfonamide derivatives” (Sugen, Inc., priority 1997, dated 1999)", "data": [{"target": "T1, IGF-1R (Homo sapiens, UniProt P08069)", "T1 construct": "expressed in transfected cells; host or cells: 3T3/IGF-1R (mouse NIH 3T3 line overexpressing IGF-1R)", "T1 sequence (P08069 741-1367 limits assumed)": "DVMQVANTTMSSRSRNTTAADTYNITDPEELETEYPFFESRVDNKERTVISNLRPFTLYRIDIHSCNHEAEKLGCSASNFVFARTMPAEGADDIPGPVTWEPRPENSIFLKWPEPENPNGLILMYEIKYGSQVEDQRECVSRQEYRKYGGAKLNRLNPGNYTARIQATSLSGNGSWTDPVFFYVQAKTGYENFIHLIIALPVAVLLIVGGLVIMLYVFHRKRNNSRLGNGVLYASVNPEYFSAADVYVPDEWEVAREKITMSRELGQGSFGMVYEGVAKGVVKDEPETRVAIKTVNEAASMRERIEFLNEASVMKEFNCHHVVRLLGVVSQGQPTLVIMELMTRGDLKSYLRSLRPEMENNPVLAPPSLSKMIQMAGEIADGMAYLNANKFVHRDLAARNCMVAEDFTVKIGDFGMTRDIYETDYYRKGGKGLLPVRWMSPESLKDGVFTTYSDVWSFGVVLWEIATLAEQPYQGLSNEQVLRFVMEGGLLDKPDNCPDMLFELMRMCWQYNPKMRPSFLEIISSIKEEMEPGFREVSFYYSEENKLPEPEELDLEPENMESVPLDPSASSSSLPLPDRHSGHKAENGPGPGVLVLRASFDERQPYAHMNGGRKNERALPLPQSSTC", "T1 sequence (P08069 31-736 partner limits assumed)": "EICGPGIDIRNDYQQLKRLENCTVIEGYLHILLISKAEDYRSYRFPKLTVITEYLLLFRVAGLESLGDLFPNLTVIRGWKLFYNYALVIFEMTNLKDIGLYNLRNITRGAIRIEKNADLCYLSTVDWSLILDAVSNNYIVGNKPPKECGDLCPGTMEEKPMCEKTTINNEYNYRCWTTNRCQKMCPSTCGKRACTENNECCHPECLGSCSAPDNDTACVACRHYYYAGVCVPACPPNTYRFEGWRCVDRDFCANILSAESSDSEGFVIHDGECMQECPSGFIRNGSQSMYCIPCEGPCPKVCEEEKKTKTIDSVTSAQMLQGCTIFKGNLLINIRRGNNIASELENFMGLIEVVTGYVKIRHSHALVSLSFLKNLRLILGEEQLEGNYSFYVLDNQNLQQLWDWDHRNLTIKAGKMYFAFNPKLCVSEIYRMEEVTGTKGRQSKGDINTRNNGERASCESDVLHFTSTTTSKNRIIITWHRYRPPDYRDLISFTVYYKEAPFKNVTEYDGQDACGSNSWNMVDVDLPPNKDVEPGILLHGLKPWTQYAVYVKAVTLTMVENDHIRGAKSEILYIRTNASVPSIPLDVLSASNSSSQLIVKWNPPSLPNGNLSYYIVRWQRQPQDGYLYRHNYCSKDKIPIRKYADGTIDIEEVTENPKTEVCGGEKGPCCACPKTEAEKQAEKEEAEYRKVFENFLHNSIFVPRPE", "assay": "Cellular IGF-1 Receptor ELISA", "format": "cell-based", "settings": "3T3/IGF-1R cells, 20 nM IGF-1", "experimental": "Cellular IGF-1 Receptor ELISA (Version I)\n(1). The cell line used in this assay is 3T3/IGF-1R, a cell line which overexpresses IGF-1 Receptor.\n(2). 3T3/IGF-1R is grown in an incubator with 5% CO2 at 37° C. The growth media is DMEM+10% FBS (heat inactivated)+2mM L-Glutamine.\n(3). For ELISA plate coating, the anti-IGF-1R antibody named 17-69 is used. Antibodies are purified by the Enzymology Lab, SUGEN, Inc.\n(10). Insulin-like growth factor-1 from Promega (Cat# G5111).\n(11). Polyclonal antiserum Anti-phosphotyrosine:\n(1). The cells, grown in tissue culture dish (10 cm, Corning 25020-100) to 80-90% confluence, are harvested with Trypsin-EDTA (0.25%, 0.5 ml/D-100, GIBCO).\n(2). Resuspend the cells in fresh DMEM +10% FBS+2 mM L-Glutamine, and transfer to 96-well tissue culture plate (Corning, 25806-96) at 20,000 cells/well (100 ul/well). Incubate for 1 day then replace medium to serum-free medium (90/ul) and incubate in 5% CO2 and 37° C. overnight.\n(1). Coat the ELISA plate (Corning 25805-96) with Anti-IGF-1R Antibody at 0.5 ug/well in 100 ul PBS at least 2 hours. (2). Remove the coating solution, and replace with 100 ul Blocking Buffer, and shake for 30 minutes. Remove the blocking buffer and wash the plate just before adding lysate.\n(1). The drugs are tested in serum-free condition.\n(2). Dilute drug stock (in 100% DMSO) 1:10 with DMEM in 96-well poly-propylene plate, and transfer 10 ul/well of this solution to the cells to achieve final drug dilution 1:100, and final DMSO concentration of 1.0%. Incubate the cells in 5% CO2 at 37° C. for 2 hours.\n(3). Prepare fresh cell lysis buffer (HNTG HNTG 2 ml EDTA 0.1 ml Na3VO4 0.1 ml Na4P2O7 0.1 ml H20 7.3 ml HNTG* 10 ml.\n(4). After drug incubation for two hours, transfer 10 ul/well of 200nM IGF-1 Ligand in PBS to the cells (Final Conc=20 nM), and incubate at 5% CO2 at 37° C. for 10 minutes.\n(5). Remove media and add 100 ul/well HNTG* and shake for 10 minutes. Look at cells under microscope to see if they are adequately lysed.\n(6). Use a 12-channel pipette to scrape the cells from the plate, and homogenize the lysate by repeat aspiration and dispense. Transfer all the lysate to the antibody coated ELISA plate [V.2.(2)], and shake for 1 hour.\n(7). Remove the lysate, wash the plate, transfer anti-pTyr (1:3,000 with TBST) 100 ul/well, and shake for 30 minutes.\n(7). Remove anti-pTyr, wash the plate, transfer detection antibody (1:3,000 with TBST) 100 ul/well, and shake for 30 minutes.\n(8). Remove detection antibody, wash the plate, and transfer fresh ABTS/H2O2 (1.2 ul H2O2 to 10 ml ABTS) 100 ul/well to the plate to start color development.\n(9). Measure OD (410 nm) in Dynatec MR5000, which is connected to Ingres.", "units": {"IC50": "µM"}, "values": [{"smiles": "CC(C)c1cc(/C=C(\\C#N)S(=O)(=O)c2ccccc2)cc(C(C)C)c1O", "note": "[Compound 731]", "IC50": 29.2}, {"smiles": "CC(C)c1cc(/C=C(\\C#N)S(=O)(=O)NCc2ccccc2)cc(C(C)C)c1O", "note": "[Compound 732]", "IC50": 11.8}, {"smiles": "N#C/C(=C\\c1ccc(O)cc1Cl)S(=O)(=O)NCc1ccccc1", "note": "[Compound 733]", "IC50": "> 100"}, {"smiles": "N#C/C(=C\\c1ccc(O)cc1Cl)S(=O)(=O)NCCCc1ccccc1", "note": "[Compound 734]", "IC50": 93.9}, {"smiles": "CC(C)(C)c1cc(/C=C(\\C#N)S(=O)(=O)Cc2cccc(C(F)(F)F)c2)cc(C(C)(C)C)c1O", "note": "[Compound 735]", "IC50": "> 100"}, {"smiles": "CC(C)c1cc(/C=C(\\C#N)S(=O)(=O)Cc2cccc(C(F)(F)F)c2)cc(C(C)C)c1O", "note": "[Compound 736]", "IC50": 19}, {"smiles": "CC(C)c1cc(/C=C(\\C#N)S(=O)(=O)c2cccs2)cc(C(C)C)c1O", "note": "[Compound 737]", "IC50": 93.5}, {"smiles": "CC(C)c1cc(/C=C(\\C#N)S(=O)(=O)c2ccsc2)cc(C(C)C)c1O", "note": "[Compound 738]", "IC50": "> 100"}, {"smiles": "Cc1cc(/C=C(\\C#N)S(=O)(=O)Cc2cccc(C(F)(F)F)c2)cc(C)c1O", "note": "[Compound 739]", "IC50": "> 100"}, {"smiles": "CC(C)(C)c1cc(/C=C(\\C#N)S(=O)(=O)c2ccc(F)cc2)cc(C(C)(C)C)c1O", "note": "[Compound 740]", "IC50": "> 100"}, {"smiles": "CC(C)c1cc(/C=C(\\C#N)S(=O)(=O)c2ccc(F)cc2)cc(C(C)C)c1O", "note": "[Compound 741, (E)-3-(3,5-Diisopropyl-4-hydroxyphenyl)-2-(4-fluorophenylsulfonyl)acrylonitrile]", "IC50": 28.3}, {"smiles": "CC(C)(C)c1cc(/C=C(\\C#N)S(=O)(=O)c2cccs2)cc(C(C)(C)C)c1O", "note": "[Compound 742]", "IC50": "> 100"}, {"smiles": "N#C/C(=C\\c1ccc(O)c(O)c1)S(=O)(=O)c1cccs1", "note": "[Compound 743, (E)-3-(3,4-Dihydroxyphenyl)-2-[(thien-2-yl)sulfonyl]acrylonitrile]", "IC50": "> 100"}, {"smiles": "Cc1cc(/C=C(\\C#N)S(=O)(=O)c2ccc(F)cc2)cc(C)c1O", "note": "[Compound 744]", "IC50": "> 100"}, {"smiles": "CC(C)c1cc(/C=C(\\C#N)S(=O)(=O)/C(C#N)=C/c2cc(C(C)C)c(O)c(C(C)C)c2)cc(C(C)C)c1O", "note": "[Compound 745]", "IC50": 69}, {"smiles": "CC(C)(C)c1cc(/C=C(\\C#N)S(=O)(=O)c2ccsc2)cc(C(C)(C)C)c1O", "note": "[Compound 746]", "IC50": "> 100"}, {"smiles": "CC(C)c1cc(/C=C(\\C#N)S(=O)(=O)c2ccccn2)cc(C(C)C)c1O", "note": "[Compound 747]", "IC50": "> 100"}, {"smiles": "Cc1cc(/C=C(\\C#N)S(=O)(=O)c2ccccc2)cc(C)c1O", "note": "[Compound 748]", "IC50": "> 100"}]}]}
